According to patent EP2390266A1, “3-D Conformation of GLIC and allosteric modulation thereof” (priority 2010, dated 2011):

Tests used:
GLIC = molecular target: T1, GLIC (Gloeobacter violaceus, UniProt Q7NDN8); settings: cited from earlier work; for inhibition of GLIC: at clinical concentration; for nH: Hill number of the inhibition curve; for nH / currents inhibited by up to: EC20 concentration (pH 4.7-5.3) of protons; for IC50: currents elicited by an EC20 concentration (pH 4.7-5.3) of protons; for currents inhibited by up to: maximal inhibition
T1 sequence (Q7NDN8 44-359): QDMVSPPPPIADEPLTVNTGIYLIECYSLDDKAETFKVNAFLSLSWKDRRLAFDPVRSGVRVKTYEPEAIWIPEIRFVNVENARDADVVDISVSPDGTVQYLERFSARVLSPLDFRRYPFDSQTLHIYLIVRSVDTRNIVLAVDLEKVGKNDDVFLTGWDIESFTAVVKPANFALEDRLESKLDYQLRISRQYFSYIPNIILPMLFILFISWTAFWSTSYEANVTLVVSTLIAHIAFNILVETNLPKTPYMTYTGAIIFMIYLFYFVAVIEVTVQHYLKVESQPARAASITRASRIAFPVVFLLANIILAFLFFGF

V242M mutated GLIC = assay: Two-electrode voltage clamp on oocytes, mutant GLIC; type: cell-based, Gloebacter violaceus
Description: (§1) • Figure 3A. […] Xenopus laevis oocytes, holding potential -60 to -40 mV.
(§2) For desflurane inhibition (figures 3C-3F), full dose-inhibition curves were measured at pH20.

T255A mutated GLIC = assay: as above; type: cell-based, Gloebacter violaceus
Description: as §1, §2

I202Y mutated GLIC = assay: as above; type: cell-based, Gloebacter violaceus
Description: as §1, §2

I202A mutated GLIC = assay: as above; type: cell-based, Gloebacter violaceus
Description: as §1, §2

I202W mutated GLIC = assay: as above; type: cell-based, Gloebacter violaceus
Description: as §1, §2

I258M mutated GLIC = settings: activation at pH20 (pH 5.5 to 5.8)
Description: (§3) We monitored the inhibitory action of both anesthetics by two-electrode voltage clamp on oocytes expressing the GLIC channel. A typical experiment consists at activating the GLIC channel by an EC20 concentration of protons for 5 min, a period during which anesthetics are applied for 1min, 1 min after the onset of proton application.
(§4) Key residues contacting or neighboring propofol and desflurane in the 3D structure were mutated to alanine, or to more bulky residues in order to decrease the size of the binding pocket (mutants I202 A,Y,W, V242 A,M,W, T255A and I258A,M). […] Mutants were first characterized by their trace currents and proton dose-response curve (figures 3C-3F).

I258A mutated GLIC = settings: activation at pH20 (pH 5.5 to 5.8)
Description: as §3, §4

V242A mutated GLIC = tested on: V242A mutated GLIC
Description: as §3, §4

wild-type GLIC = wild-type GLIC (Gloeobacter violaceus, UniProt Q7NDN8); assay: cell-based
Description: as §3

[1] = increased sensitivity for propofol
[2] = activation at pH20 (pH 5.5 to 5.8), 10 µM propofol (Fig. 3C)
[3] = activation at pH20 (pH 6.5-6.8), 10 µM propofol (Fig. 3C)

Question: With `CC(O)CC(=O)O` (stereo not shown) [3-hydroxybutyric acid] as the molecule, how does the “inhibition of GLIC” value (GLIC) read?
Answer: robustly inhibited

Question: Which “inhibition of GLIC” value (GLIC) does the source give for `CCOC(=O)c1cncn1[C@H](C)c1ccccc1` [etomidate, ethyl 3-[(1R)-1-phenylethyl]imidazole-4-carboxylate] here?
Answer: robustly inhibited

Question: Which nH (GLIC) does the source give for `FC(F)OC(F)C(F)(F)F` (stereo not shown) [desflurane, 2-(difluoromethoxy)-1,1,1,2-tetrafluoro-ethane] here?
Answer: 0.24

Question: What about the “inhibition of GLIC” value (GLIC) of the same molecule?
Answer: robustly inhibited

Question: What about the IC50 (GLIC) of the same molecule?
Answer: 10 µM

Question: What about the “currents inhibited by up to” value (GLIC) of the same molecule?
Answer: up to 90%

Question: What about the “desflurane inhibition, full dose-inhibition curve compared with WT” value (shortened to “desflurane inhibition … compared with WT”) (V242M mutated GLIC; at pH20) of the same molecule?
Answer: did not alter significantly

Question: What about the “desflurane inhibition … compared with WT” value (T255A mutated GLIC; at pH20, decreased sensitivity toward desflurane) of the same molecule?
Answer: dramatic shift of the curve to the right

Question: What about the “desflurane inhibition … compared with WT” value (I202Y mutated GLIC; at pH20) of the same molecule?
Answer: did not alter significantly

Question: What about the “desflurane inhibition … compared with WT” value (I202A mutated GLIC; at pH20) of the same molecule?
Answer: did not alter significantly

Question: What about the “desflurane inhibition … compared with WT” value (I202W mutated GLIC; at pH20) of the same molecule?
Answer: did not alter significantly

Question: For `CC(C)c1cccc(C(C)C)c1O` [propofol, 2,6-diisopropylphenol], which “propofol inhibition compared with WT” value (I258M mutated GLIC) is on record?
Answer: not significantly different from WT

Question: What about the “propofol inhibition compared with WT” value (I258A mutated GLIC) of the same molecule?
Answer: not significantly different from WT

Question: And the “propofol inhibition compared with WT” value (V242A mutated GLIC; activation at pH20 (pH 5.5 to 5.8))?
Answer: more inhibited

Question: What about the “propofol dose-inhibition curve compared with wt” value (V242A mutated GLIC; [1]) of the same molecule?
Answer: shift of the dose-inhibition curve toward the left

Question: And the nH (GLIC)?
Answer: 0.39

Question: What about the “inhibition of GLIC” value (GLIC) of the same molecule?
Answer: robustly inhibited

Question: And the IC50 (GLIC)?
Answer: 0.6 µM

Question: What about the “currents inhibited by up to” value (GLIC) of the same molecule?
Answer: up to 90%

Question: What about the “inhibition of GLIC” value (wild-type GLIC; higher proton concentration (at the EC50)) of the same molecule?
Answer: no longer observed

Question: What about the inhibition at 10 µM (wild-type GLIC; read-out: inhibition of GLIC) of the same molecule?
Answer: 28%

Question: What about the “propofol inhibition compared with WT” value (V242M mutated GLIC; [2]) of the same molecule?
Answer: more inhibited

Question: What about the “propofol dose-inhibition curve compared with wt” value (V242M mutated GLIC; [1]) of the same molecule?
Answer: shift of the dose-inhibition curve toward the left

Question: And the “propofol inhibition compared with WT” value (T255A mutated GLIC; [3])?
Answer: more inhibited

Question: And the “propofol dose-inhibition curve compared with wt” value (T255A mutated GLIC; [1])?
Answer: shift of the dose-inhibition curve toward the left

Question: What about the “propofol inhibition compared with WT” value (I202Y mutated GLIC; [3]) of the same molecule?
Answer: not significantly different from WT

Question: What about the “propofol inhibition compared with WT” value (I202A mutated GLIC; [2]) of the same molecule?
Answer: not significantly different from WT

Question: And the “propofol inhibition compared with WT” value (I202W mutated GLIC; [2])?
Answer: not significantly different from WT
